The values below come from patent publication US9447140B2, “Cholest-4-en-3-one oxime derivatives, pharmaceutical compositions containing same, and preparation method” (TROPHOS, priority 2008, dated 2016).

One data set has as its system rat motor neurons. Description: in vitro model of trophic deprivation of rat motor neurons (survival, calcein fluorescence after 3 days). The data set is classed as cell-based. The settings on record: Concentration 1 μM, E14 rat motor neurons, Neurobasal medium without neurotrophic factors. The source says: Reference can usefully be made to the applicant's patent application WO 0142784 on the culturing of motor neurons of the spinal cord.
The spinal cord of E14 rat embryos is dissected and the ventral part is dissociated by trituration after trypsination.
The motor neurons are separated from the other spinal cells by a known method (Camu et al., 1993, Purification of spinal motoneurons from chicken and rat embryos by immunopanning. In “Immunoselection Strategies for Neural cell culture”, Neuroprotocols: A companion to Methods in Neurosciences 2, 191-199; Henderson et al., 1993, Neutrophins promote motor neuron survival and are present in embryonic limb bud. Nature 363 (6426):266-70).
The cells are centrifuged on a density gradient. The fraction of large cells (the least dense) is enriched with motor neurons. The cells in this fraction are incubated with an anti-p75 antibody, a surface antigen present on the motor neurons.
Secondary antibodies coupled to magnetic beads are added and the mixture of cells is passed through a column in a magnet (Arce et al., 1999 Cardiotrophin-1 requires LIFRbeta to promote survival of mouse motoneurons purified by a novel technique. J. Neurosci Res 55 (1): 119-26). Only the motor neurons are retained: their purity is of the order of 90%.
The motor neurons are seeded at a low density in culture wells on a polyornithine-laminin substrate in a neurobasal medium (GIBCO) supplemented according to Raoul et al., 1999, Programmed cell death of embryonic motoneurons triggered through the Fas death receptor. J Cell Biol 147 (5):1049-62.
Negative controls (absence of trophic factors) and positive controls (in the presence of BDNF (Brain-Derived Neurotrophic Factor) at 1 ng/ml, GDNF (Glial-Derived Neurotrophic Factor) at 1 ng/ml and CNTF (Ciliary Neurotrophic Factor) at 10 ng/ml, marketed by the American company PEPROTECH, Inc. and the company Sigma-Aldrich, are included in each series.
The compounds to be tested are added 60 minutes after seeding and the cultures are maintained at 37° C. under 5% CO2 for 3 days.
The motor neurons have a spontaneous tendency to die in the absence of neurotrophic factors (Pettmann and Henderson, 1998, Neuronal cell death. Neuron 20 (4):633-47). After 3 days, the survival is evaluated by a fluorescence measurement after incubation of the cells in the presence of calcein which becomes fluorescent in living cells.
After 3 days in culture at 37° C., under 5% CO2 and under saturation humidity, up to 50% of the motor neurons initially seeded survive in the medium supplemented with neurotrophic factors, whilst less than 15% of the motor neurons survive in culture medium without added neurotrophic factors.
The neuroprotective activity of the compounds to be tested was evaluated by their ability to prevent the death of the motor neurons when they are added to the Neurobasal medium (GIBCO) in comparison with the survival of the motor neurons in medium with added neurotrophic factors.
This survival rate is expressed by the number of living cells after treatment with the compound to be tested compared with the survival induced by the neurotrophic factors. This ratio can therefore represent the survival percentage due to the compound tested compared with the survival induced by the neurotrophic factors. If the ratio is greater than 0, the effect of the compounds on the survival of the motor neurons is positive.
On to `CC(CCC[C@@H](C)[C@H]1CC[C@H]2[C@@H]3CCC4=CC(=NO)CC[C@]4(C)[C@H]3CC[C@]12C)N(C)c1ccc([N+](=O)[O-])c2nonc12` (stereo partly drawn) [Example 2h, 3-oxyimino-25-[methyl(7-nitro-2,1,3-benzoxadiazol-4-yl)amino]-27-norcholest-4-ene], for which the “Ratio (survival of motor neurons with compound compared with the survival induced by the neurotrophic factors)” value (“Ratio” for short) is listed as 0.66. For the molecule `CC(C)CCC[C@@H](C)[C@H]1CC[C@H]2[C@@H]3CCC4=CC(=NO)CC[C@]4(COC(=O)CCCCC4SCC5NC(=O)NC54)[C@H]3CC[C@]12C` (stereo partly drawn) [Example 2l, 3-oxyimino-19-biotinyloxy-cholest-4-ene], the “Ratio” value is recorded as 0.32.

`CC(C)CCC[C@@H](C)[C@H]1CC[C@H]2[C@@H]3CCC4=CC(=NO)C(C)C[C@]4(C)[C@H]3CC[C@]12C` (stereo partly drawn) [Example 2m, 3-oxyimino-2-methyl-cholest-4-ene]: the “Ratio” value is on record as 0.42. The same measure, in the same setting: the same measure for `COC1=C2CC[C@H]3[C@@H]4CC[C@H]([C@H](C)CCCC(C)C)[C@@]4(C)CC[C@@H]3[C@@]2(C)CCC1=NO` [Example 2n, 3-oxyimino-4-methoxy-cholest-4-ene]: 0.34.

The same data set, now with this note: Concentration 3 μM, E14 rat motor neurons, Neurobasal medium without neurotrophic factors.
Consider `CC(C)CCC[C@@H](C)[C@H]1CCC2C3CCC4=C(F)/C(=N/O)CC[C@]4(C)C3CC[C@@]21C` (stereo partly drawn) [Example 2b, 3-oxyimino-4-fluoro-cholest-4-ene], for which the “Ratio” value was 0.73.

For `CC(C)CCC[C@@H](C)[C@H]1CCC2C3C[C@@H](F)C4=CC(=NO)CC[C@]4(C)C3CC[C@@]21C` (stereo partly drawn) [Example 2c, 3-oxyimino-6β-fluoro-cholest-4-ene], the “Ratio” value is 0.50.

For `CC(C)CCC[C@@H](C)[C@H]1CCC2C3CCC4=C/C(=N/O)C(F)(F)C[C@]4(C)C3CC[C@@]21C` (stereo partly drawn) [Example 2d, 3-oxyimino-2,2-difluoro-cholest-4-ene], the “Ratio” value is 0.50.

In the case of `CC(C)CCC[C@@H](C)[C@H]1CC[C@H]2[C@@H]3CC(F)C4=CC(=NO)C(F)C[C@]4(C)[C@H]3CC[C@]12C` (stereo partly drawn) [Example 2e, 3-oxyimino-2,6-difluoro-cholest-4-ene], the “Ratio” value is 0.37. The same measure, in the same setting: to `CC(C)CCC[C@@H](C)[C@H]1CC[C@H]2[C@@H]3CCC4=CC(=NO)[C@H](F)C[C@]4(C)[C@H]3CC[C@]12C` [Example 2f, 3-oxyimino-2α-fluoro-cholest-4-ene] belongs 0.27; to `CC(CCCC(C)N(C)C(=O)CCCCC1SCC2NC(=O)NC21)C1CCC2C3CCC4=CC(=NO)CCC4(C)C3CCC12C` (stereo not drawn) [Example 2i, 3-oxyimino-25-((N-(+)-biotinoyl-N-methyl)amino)-27-norcholest-4-ene], 0.42.

Take `CC(C)CCC[C@@H](C)[C@H]1CC[C@H]2[C@@H]3CCC4=CC(=NO)CC[C@]4(CO)[C@H]3CC[C@]12C` [Example 2k, 3-oxyimino-19-hydroxy-cholest-4-ene]: the “Ratio” value was 0.49.

Tested on in the next data set: not listed separately
Description: exposure after administration by oral route. The data set is classed as in vivo. The note with it: qualitative.
Turning to `CC(C)CCC[C@@H](C)[C@H]1CCC2C3CCC4=C(F)/C(=N/O)CC[C@]4(C)C3CC[C@@]21C` (stereo partly drawn) [Example 2b, 3-oxyimino-4-fluoro-cholest-4-ene], the “exposure when administered by oral route” value is recorded as “improved exposure”.
